Experimental data from ChEMBL document CHEMBL1150851, “Naphthopyranone glycosides from Paepalanthus microphyllus” (J Nat Prod, 2001).
Values after ≈ are worked out from the molar mass of the structure shown. Active and inactive are the calls of the source. The rule behind the calls is not given here.

Columns and labels:
[1] = test system: Human immunodeficiency virus 1; assay: Antiviral activity against HIV1 MN infected in human C8166 cells assessed as reduction in antigen gp120 production by ELISA; assay type: functional, organism-based; details: Human immunodeficiency virus 1, MN
[2] = Cytotoxicity against uninfected human C8166 cells by XTT-formazan method; assay type: cell-based; details: read-out: TC50 (the source's name)
[3] = test system: Human immunodeficiency virus 1; assay: Antiviral activity against HIV1 3B infected in human C8166 cells assessed as syncytia formation at 5 fold EC50 preincubated for 5 to 6 days before infection measured after 2 days postinfection by XTT-formazan method; assay type: functional, organism-based
[4] = Selectivity index, ratio of TC50 for uninfected human C8166 cells to EC50 for HIV1 MN infected in human C8166 cells; assay type: toxicity, cell-based; details: uninfected C8166 cells and HIV-1 MN-infected C8166 cells, read-out: Selectivity Index

EC50 [1]	SMILES	CC50 [2]	Activity [3]	selectivity ratio [4]
38 µg/mL (≈ 81.8 µM)	COc1cc(O[C@@H]2O[C@H](CO)[C@@H](O)[C@H](O)[C@H]2O)c2c(O)c3c(=O)oc(C)cc3c(OC)c2c1	160 µg/mL (≈ 345 µM)	inactive	4.2
18 µg/mL (≈ 30.2 µM)	COc1cc(O[C@@H]2O[C@H](CO[C@@H]3OC[C@H](O)[C@H](O)[C@H]3O)[C@@H](O)[C@H](O)[C@H]2O)c2c(O)c3c(=O)oc(C)cc3c(OC)c2c1	160 µg/mL (≈ 268 µM)	inactive	8.9
75 µg/mL (≈ 120 µM)	COc1cc(O[C@@H]2O[C@H](CO[C@@H]3O[C@H](CO)[C@@H](O)[C@H](O)[C@H]3O)[C@@H](O)[C@H](O)[C@H]2O)c2c(O)c3c(=O)oc(C)cc3c(OC)c2c1	150 µg/mL (≈ 239 µM)	inactive	2
0.016 µg/mL (≈ 0.0599 µM)	Cc1cn([C@H]2C[C@H](N=[N+]=[N-])[C@@H](CO)O2)c(=O)[nH]c1=O [ZIDOVUDINE]	> 1000 µg/mL	–	–
30 µg/mL (≈ 49.1 µM)	COc1cc(O[C@@H]2O[C@H](CO[C@@H]3O[C@@H](C)[C@H](O)[C@@H](O)[C@H]3O)[C@@H](O)[C@H](O)[C@H]2O)c2c(O)c3c(=O)oc(C)cc3c(OC)c2c1	100 µg/mL (≈ 164 µM)	inactive	3.3
